Source: ChEMBL document CHEMBL5625183, “Discovery of a novel dual-target inhibitor of CDK12 and PARP1 that induces synthetic lethality for treatment of triple-negative breast cancer” (Eur J Med Chem, 2023)
Active and inactive are the calls of the source. The rule behind the calls is not given here.

How the values were obtained:
[1] = test system: MDA-MB-468; test: Antiproliferative activity against human MDA-MB-468 cells assessed as decrease in number of colony formation at 10 uM measured after 24 days by crystal violet staining based analysis; type: functional, cell-based; details: time 24.0 day
[2] = Clearance in Sprague-Dawley rat at 1 mg/kg, iv measured upto 24 hrs by LC-MS/MS analysis; type: ADME, organism-based; details: in vivo
[3] = test system: MDA-MB-231; test: Antitumor activity against human MDA-MB-231 cells xenografted in ip dosed BALB/c mouse assessed as downregulation of MMP-2 level administered once daily for 16 days; type: functional, organism-based; details: dose 20-80 mg/kg, time 16.0 day
[4] = Tmax in Sprague-Dawley rat at 10 mg/kg, po measured upto 24 hrs by LC-MS/MS analysis; type: ADME, organism-based; details: in vivo
[5] = MRT (0 to infinity) in Sprague-Dawley rat at 10 mg/kg, po measured upto 24 hrs by LC-MS/MS analysis; type: ADME, organism-based; details: in vivo
[6] = Half life in Sprague-Dawley rat 10 mg/kg, po measured upto 24 hrs by LC-MS/MS analysis; type: ADME, organism-based; details: in vivo
[7] = biological target: Cyclin-dependent kinase 2 (Homo sapiens, UniProt P24941); test: Inhibition of CDK2 (unknown origin) at 1 uM relative to control
[8] = test system: MDA-MB-436; test: Downregulation of Pol II CTD at ser2 residue expression in human MDA-MB-436 cells incubated for 24 hrs; type: functional, cell-based; details: dose 5-20 µM
[9] = test system: Mus musculus; test: In-vivo induction of DNA damage in ip dosed BALB/c mouse assessed as downregulation of RAD51 level in tumor administered once daily for 16 days by Western blot analysis; type: functional, organism-based; details: dose 20-80 mg/kg, time 16.0 day
[10] = biological target: Vascular endothelial growth factor receptor 3 (Homo sapiens) (UniProt P35916); test: Inhibition of FLT4 (unknown origin) at 1 uM relative to control
Vascular endothelial growth factor receptor 3 (Homo sapiens), sequence (P35916 whole entry): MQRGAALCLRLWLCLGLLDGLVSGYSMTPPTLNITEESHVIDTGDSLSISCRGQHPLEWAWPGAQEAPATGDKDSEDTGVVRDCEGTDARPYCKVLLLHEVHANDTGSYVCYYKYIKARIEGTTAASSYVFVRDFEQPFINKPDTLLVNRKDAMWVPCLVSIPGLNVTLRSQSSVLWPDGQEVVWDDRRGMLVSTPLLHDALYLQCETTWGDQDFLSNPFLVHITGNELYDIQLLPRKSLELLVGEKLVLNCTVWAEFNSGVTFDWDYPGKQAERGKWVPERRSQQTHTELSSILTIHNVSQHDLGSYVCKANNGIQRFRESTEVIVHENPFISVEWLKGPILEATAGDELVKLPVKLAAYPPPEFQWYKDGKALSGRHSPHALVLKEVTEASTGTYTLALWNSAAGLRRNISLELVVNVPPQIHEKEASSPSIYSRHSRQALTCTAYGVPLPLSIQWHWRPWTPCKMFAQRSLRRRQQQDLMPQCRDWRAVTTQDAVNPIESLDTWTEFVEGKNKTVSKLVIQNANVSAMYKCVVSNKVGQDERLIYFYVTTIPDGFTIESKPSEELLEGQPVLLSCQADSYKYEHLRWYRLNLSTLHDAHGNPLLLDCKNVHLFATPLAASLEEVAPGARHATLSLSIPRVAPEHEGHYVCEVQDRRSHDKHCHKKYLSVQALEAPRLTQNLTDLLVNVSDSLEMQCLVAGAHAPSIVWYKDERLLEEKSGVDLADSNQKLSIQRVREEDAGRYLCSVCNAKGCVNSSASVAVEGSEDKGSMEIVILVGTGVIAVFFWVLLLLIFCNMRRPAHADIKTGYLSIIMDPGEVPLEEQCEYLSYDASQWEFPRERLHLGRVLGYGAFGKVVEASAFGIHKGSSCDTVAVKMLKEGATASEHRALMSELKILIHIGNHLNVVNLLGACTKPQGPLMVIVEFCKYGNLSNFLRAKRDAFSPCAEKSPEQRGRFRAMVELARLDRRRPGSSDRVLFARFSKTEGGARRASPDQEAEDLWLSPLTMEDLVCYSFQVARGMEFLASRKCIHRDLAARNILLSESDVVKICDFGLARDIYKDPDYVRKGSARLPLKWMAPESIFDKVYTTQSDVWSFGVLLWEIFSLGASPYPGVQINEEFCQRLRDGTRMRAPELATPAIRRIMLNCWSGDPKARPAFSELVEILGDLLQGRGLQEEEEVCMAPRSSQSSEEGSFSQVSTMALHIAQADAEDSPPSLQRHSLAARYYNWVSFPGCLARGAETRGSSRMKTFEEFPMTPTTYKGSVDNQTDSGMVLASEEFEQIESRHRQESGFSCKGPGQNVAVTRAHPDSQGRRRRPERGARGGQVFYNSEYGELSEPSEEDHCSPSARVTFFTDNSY

[11] = biological target: T1, Poly [ADP-ribose] polymerase 1 (Homo sapiens, UniProt P09874); test: Binding affinity to PARP1 in human MDA-MB-231 cells assessed as increase in protein thermal stabilization at 10 uM incubated for 6 hrs by CETSA based Western blot analysis; type: cell-based
T1 sequence (P09874 whole entry): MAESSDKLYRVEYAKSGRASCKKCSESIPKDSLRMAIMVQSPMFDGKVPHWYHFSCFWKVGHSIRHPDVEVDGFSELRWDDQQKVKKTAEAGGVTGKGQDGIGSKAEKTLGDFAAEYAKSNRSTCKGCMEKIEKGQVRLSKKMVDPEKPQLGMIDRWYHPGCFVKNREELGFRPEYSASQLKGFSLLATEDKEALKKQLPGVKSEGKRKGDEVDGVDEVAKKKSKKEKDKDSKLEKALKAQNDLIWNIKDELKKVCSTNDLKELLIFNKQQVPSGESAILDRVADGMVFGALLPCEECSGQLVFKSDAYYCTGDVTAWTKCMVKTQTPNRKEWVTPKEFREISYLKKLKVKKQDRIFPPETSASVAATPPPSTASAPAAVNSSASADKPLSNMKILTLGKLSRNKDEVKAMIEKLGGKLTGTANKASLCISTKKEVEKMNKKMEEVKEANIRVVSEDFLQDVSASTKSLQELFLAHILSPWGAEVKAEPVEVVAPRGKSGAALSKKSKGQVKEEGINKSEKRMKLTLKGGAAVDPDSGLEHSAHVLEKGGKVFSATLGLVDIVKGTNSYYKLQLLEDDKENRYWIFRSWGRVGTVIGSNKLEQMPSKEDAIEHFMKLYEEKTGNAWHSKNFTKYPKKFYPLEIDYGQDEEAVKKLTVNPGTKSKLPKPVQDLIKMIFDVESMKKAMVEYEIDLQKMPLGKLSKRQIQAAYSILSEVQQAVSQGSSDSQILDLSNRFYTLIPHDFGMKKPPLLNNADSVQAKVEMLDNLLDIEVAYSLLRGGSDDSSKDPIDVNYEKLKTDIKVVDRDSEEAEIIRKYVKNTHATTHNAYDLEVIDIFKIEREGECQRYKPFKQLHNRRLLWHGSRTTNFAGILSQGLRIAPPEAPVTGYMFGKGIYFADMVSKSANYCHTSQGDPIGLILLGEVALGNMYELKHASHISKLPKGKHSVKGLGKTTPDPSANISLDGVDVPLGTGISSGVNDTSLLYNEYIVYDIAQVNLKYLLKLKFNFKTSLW

[12] = test system: MDA-MB-436; test: Induction of cell cycle arrest in human MDA-MB-436 cells assessed as accumulation of cells at G2 phase at 10 uM measured after 24 hrs by PI staining based cytometry analysis (reference value: 2.54%); type: functional
[13] = test system: MDA-MB-231; test: Antitumor activity against human MDA-MB-231 cells xenografted in ip dosed BALB/c mouse assessed as upregulation of E-cadherin level administered once daily for 16 days; type: functional, organism-based; details: dose 20-80 mg/kg, time 16.0 day
[14] = Tmax in Sprague-Dawley rat at 1 mg/kg, iv measured upto 24 hrs by LC-MS/MS analysis; type: ADME, organism-based; details: in vivo
[15] = Cmax in Sprague-Dawley rat at 1 mg/kg, iv measured upto 24 hrs by LC-MS/MS analysis; type: ADME, organism-based; details: in vivo
[16] = biological target: T1, Poly [ADP-ribose] polymerase 1; test: Inhibition of PARP1 (unknown origin) incubated for 1 hr by ELISA analysis
[17] = Toxicity in BALB/c mouse xenografted with human MDA-MB-231 cells assessed as morphological changes in lung at 20 to 80 mg/kg, ip administered once daily for 16 days by H and E staining based analysis; type: organism-based; details: in vivo, 384 h, dose 20-80 mg/kg, time 16 day
[18] = test system: Mus musculus; test: In-vivo inhibition of CDK12-PARP1 in BALB/c mouse assessed as downregulation of PAR expression in tumor at 20 to 80 mg/kg, ip administered once daily for 16 days by Western blot analysis; type: functional, organism-based; details: dose 20-80 mg/kg, time 16.0 day
[19] = test system: MDA-MB-436; test: Induction of cell cycle arrest in human MDA-MB-436 cells assessed as accumulation of cells at S phase at 10 uM measured after 24 hrs by PI staining based cytometry analysis (reference value: 25.43%); type: functional
[20] = test system: MDA-MB-231; test: Antitumor activity against human MDA-MB-231 cells xenografted in ip dosed BALB/c mouse assessed as reduction in tumor growth administered once daily for 16 days; type: functional, organism-based; details: dose 20-80 mg/kg, time 16.0 day
[21] = biological target: T2, Cyclin-dependent kinase 12 (Homo sapiens, UniProt Q9NYV4); test: Inhibition of CDK12 (unknown origin) in presence of ATP by kinase-glo plus luminescent assay
Target sequence in this assay (Q9NYV4 whole entry): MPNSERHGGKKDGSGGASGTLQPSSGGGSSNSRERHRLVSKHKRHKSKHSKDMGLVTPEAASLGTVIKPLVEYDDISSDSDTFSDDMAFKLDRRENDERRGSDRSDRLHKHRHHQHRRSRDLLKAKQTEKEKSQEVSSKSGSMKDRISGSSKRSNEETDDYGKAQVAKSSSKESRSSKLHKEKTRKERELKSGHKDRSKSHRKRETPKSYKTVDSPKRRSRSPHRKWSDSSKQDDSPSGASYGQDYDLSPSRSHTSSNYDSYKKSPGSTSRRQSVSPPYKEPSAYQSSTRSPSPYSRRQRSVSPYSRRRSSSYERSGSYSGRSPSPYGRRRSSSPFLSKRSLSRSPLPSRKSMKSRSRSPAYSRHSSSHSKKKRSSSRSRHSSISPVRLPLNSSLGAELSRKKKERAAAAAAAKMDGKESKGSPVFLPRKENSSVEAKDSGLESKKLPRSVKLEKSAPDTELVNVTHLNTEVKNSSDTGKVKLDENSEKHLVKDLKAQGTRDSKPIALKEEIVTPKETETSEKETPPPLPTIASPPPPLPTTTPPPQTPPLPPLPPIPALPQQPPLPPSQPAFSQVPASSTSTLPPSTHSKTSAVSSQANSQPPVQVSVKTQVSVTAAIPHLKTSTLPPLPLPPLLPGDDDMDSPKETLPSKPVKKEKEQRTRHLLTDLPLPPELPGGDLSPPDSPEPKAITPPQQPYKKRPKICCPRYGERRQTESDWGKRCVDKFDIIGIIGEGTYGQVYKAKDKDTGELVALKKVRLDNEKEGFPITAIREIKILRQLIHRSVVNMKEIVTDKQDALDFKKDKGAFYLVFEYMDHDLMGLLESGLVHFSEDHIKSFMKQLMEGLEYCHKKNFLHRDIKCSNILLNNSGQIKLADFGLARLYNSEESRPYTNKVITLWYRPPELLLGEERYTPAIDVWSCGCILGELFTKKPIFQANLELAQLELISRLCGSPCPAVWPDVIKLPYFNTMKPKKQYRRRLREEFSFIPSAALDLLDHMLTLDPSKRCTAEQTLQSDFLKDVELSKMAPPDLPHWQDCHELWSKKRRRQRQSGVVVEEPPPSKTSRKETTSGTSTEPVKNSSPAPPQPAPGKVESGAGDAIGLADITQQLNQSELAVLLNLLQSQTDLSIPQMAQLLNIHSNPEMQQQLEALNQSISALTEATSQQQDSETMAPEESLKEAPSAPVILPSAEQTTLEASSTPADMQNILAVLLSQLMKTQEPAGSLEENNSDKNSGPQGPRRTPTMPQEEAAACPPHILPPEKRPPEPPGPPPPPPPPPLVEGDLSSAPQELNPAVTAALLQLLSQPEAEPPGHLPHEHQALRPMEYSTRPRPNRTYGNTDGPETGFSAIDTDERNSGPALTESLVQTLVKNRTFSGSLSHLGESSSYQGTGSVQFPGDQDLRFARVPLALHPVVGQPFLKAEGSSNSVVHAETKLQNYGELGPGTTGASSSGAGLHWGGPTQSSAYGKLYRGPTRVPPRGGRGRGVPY

[22] = test system: MDA-MB-231; test: Downregulation of Pol II CTD at ser2 residue expression in human MDA-MB-231 cells incubated for 24 hrs; type: functional, cell-based; details: dose 5-20 µM
[23] = test system: MDA-MB-468; test: […] DNA repair in human MDA-MB-468 cells assessed as decrease in RAD51 level at 10 uM incubated for 24 hrs by confocal laser scanning microscopic analysis; type: functional, cell-based
[24] = test system: MDA-MB-231; test: Induction of cell cycle arrest in human MDA-MB-231 cells assessed as accumulation of cells at G1 phase at 5 uM measured after 24 hrs by PI staining based cytometry analysis (reference value: 68.55%); type: functional
[25] = test system: MDA-MB-436; test: Induction of cell cycle arrest in human MDA-MB-436 cells assessed as accumulation of cells at G1 phase at 5 uM measured after 24 hrs by PI staining based cytometry analysis (reference value: 72.04%); type: functional
[26] = test system: MDA-MB-436; test: Antiproliferative activity against human MDA-MB-436 cells transfected with CDK12 M816A and PARP1 G863A mutant incubated for 24 hrs by MTT assay; type: functional, cell-based
[27] = test system: MDA-MB-231; test: Upregulation of gamma-H2AX expression in human MDA-MB-231 cells incubated for 24 hrs by Western blot analysis; type: functional, cell-based; details: dose <= 20.0 µM
[28] = test system: MDA-MB-436; test: Induction of cell cycle arrest in human MDA-MB-436 cells assessed as accumulation of cells at S phase at 5 uM measured after 24 hrs by PI staining based cytometry analysis (reference value: 25.43%); type: functional
[29] = biological target: T2, Cyclin-dependent kinase 12; test: Inhibition of CDK12 in human MDA-MB-231 cells assessed as effect on Pol II CTD at ser5 residue phosphorylation incubated for 24 hrs; type: cell-based; details: dose 5-20 µM
Target sequence in this assay (Q9NYV4 whole entry, looked up): as the sequence (Q9NYV4 whole entry) above

[30] = test system: MDA-MB-436; test: Induction of cell cycle arrest in human MDA-MB-436 cells assessed as accumulation of cells at G1 phase at 20 uM measured after 24 hrs by PI staining based cytometry analysis (reference value: 72.04%); type: functional
[31] = test system: MDA-MB-231; test: Induction of apoptosis in human MDA-MB-231 cells assessed as increase in […] at 10 uM incubated for 24 hrs by Annexin V/PI staining based flow cytometry analysis; type: functional, cell-based
[32] = Toxicity in BALB/c mouse xenografted with human MDA-MB-231 cells assessed as morphological changes in kidney at 20 to 80 mg/kg, ip administered once daily for 16 days by H and E staining based analysis; type: organism-based; details: in vivo, 384 h, dose 20-80 mg/kg, time 16 day
[33] = biological target: T2, Cyclin-dependent kinase 12; test: Inhibition of CDK12 in human MDA-MB-436 cells assessed as effect on Pol II CTD at ser7 residue phosphorylation incubated for 24 hrs; type: cell-based; details: dose 5-20 µM
Target sequence in this assay (Q9NYV4 whole entry, looked up): as the sequence (Q9NYV4 whole entry) above

[34] = test system: Mus musculus; test: In-vivo inhibition of CDK12-PARP1 in BALB/c mouse assessed as downregulation of CTD at Ser2 residue expression in tumor at 20 to 80 mg/kg, ip administered once daily for 16 days by Western blot analysis; type: functional, organism-based; details: dose 20-80 mg/kg, time 16.0 day
[35] = test system: MDA-MB-231; test: […] DNA repair in human MDA-MB-231 cells assessed as decrease in RAD51 level at 10 uM incubated for 24 hrs by confocal laser scanning microscopic analysis; type: functional, cell-based
[36] = test system: Mus musculus; test: In-vivo induction of DNA damage in ip dosed BALB/c mouse assessed as upregulation of gamma-H2AX level in tumor administered once daily for 16 days by Western blot analysis; type: functional, organism-based; details: dose 20-80 mg/kg, time 16.0 day

SMILES: NC(=O)c1cccc2[nH]c(NC(=O)c3cccc(C(=O)N4CCC(Nc5ncc(I)cn5)CC4)c3)nc12
- Activity [1]: Active
- clearance [2]: 12.5 mL/min/kg
- Activity [3]: Active
- Tmax [4]: 1.58 h
- MRT inf [5]: 4.76 h
- half-life [6]: 2.39 h
- inhibition [7]: > 60%
- Activity [8]: Dose-Dependent Effect
- Activity [9]: Dose-Dependent Effect
- inhibition [10]: > 60%
- Activity [11]: Active
- Activity [12]: 7.35%
- Activity [13]: Dose-Dependent Effect
- Tmax [14]: 4.8 min
- Cmax [15]: 2130 ng/mL
- IC50 [16]: 34 nM
- Activity [17]: Non-Toxic
- inhibition [18]: Active
- Activity [19]: 25.71%
- Activity [20]: Dose-Dependent Effect
- IC50 [21]: 285 nM
- Activity [22]: Dose-Dependent Effect
- Activity [23]: Active
- Activity [24]: 63.3%
- Activity [25]: 69.11%
- Activity [26]: Active
- Activity [27]: Dose-Dependent Effect
- Activity [28]: 26.5%
- inhibition [29]: Dose-Dependent Effect
- Activity [30]: 63.76%
- Activity [31]: Active
- Activity [32]: Non-Toxic
- inhibition [33]: Dose-Dependent Effect
- inhibition [34]: Active
- Activity [35]: Active
- Activity [36]: Active
